Entries after “also recorded” stand apart in the source; their conditions may differ.
Legend:
COX-2 = target: T1, COX-2 (Homo sapiens, UniProt P35354); assay: Cell-based COX-2 activity assay in IL-1β-stimulated A549 cells; design: endogenous in cells; host or cells: A549 stimulated with 1 ng/ml IL-1β; conditions: 10 µM, 24 h, 1 ng/ml IL-1β
T1 sequence (P35354 18-604): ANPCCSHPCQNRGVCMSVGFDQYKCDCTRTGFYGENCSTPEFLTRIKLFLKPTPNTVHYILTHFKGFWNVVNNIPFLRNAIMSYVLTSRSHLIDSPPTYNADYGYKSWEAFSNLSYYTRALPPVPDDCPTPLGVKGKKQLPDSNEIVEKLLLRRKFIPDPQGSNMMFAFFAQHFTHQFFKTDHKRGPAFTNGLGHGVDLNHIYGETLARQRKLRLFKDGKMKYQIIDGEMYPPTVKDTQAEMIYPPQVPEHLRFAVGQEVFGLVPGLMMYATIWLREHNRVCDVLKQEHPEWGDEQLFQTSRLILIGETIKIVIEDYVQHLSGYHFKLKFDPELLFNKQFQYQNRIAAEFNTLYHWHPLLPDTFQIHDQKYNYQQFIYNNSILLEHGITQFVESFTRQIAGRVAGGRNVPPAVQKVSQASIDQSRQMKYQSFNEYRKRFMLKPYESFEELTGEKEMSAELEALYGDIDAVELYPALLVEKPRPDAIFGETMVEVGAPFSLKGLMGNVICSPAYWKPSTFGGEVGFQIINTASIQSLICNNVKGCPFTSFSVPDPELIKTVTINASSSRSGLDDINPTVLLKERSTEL
Method: The COX-2 inhibitory effects of NFA were investigated using a cell-based COX-2 activity assay performed using a Cyclooxygenase (COX) Activity Assay Kit (Fluorometric) from Abcam (Cambridge, UK; #ab204699). A549 cells (3 × 10^6) were seeded in 10-cm dishes and allowed to become adherent for 3 h. […] Then, cells were detached with a cell scraper and washed twice with 1× PBS before being resuspended in 100 µl lysis buffer (1× PBS containing 1% NP-40). The cells were incubated for 30 min with shaking on ice. After 3-min centrifugation at 12,000 ×g at 4°C, 20 µl supernatant was used for the COX activity assay. The assay was performed according to the manufacturer’s instructions in a white 96-well microplate with a clear bottom in duplicate. […] COX-2 activity was normalized to protein concentration.
Suppl. Figure 5: Effects of NFA on cellular COX-2 activity. COX-2 Activity of A549 cells […]
h. Cells were lysed, and COX-2 activity was measured using Cyclooxygenase (COX) Activity Assay Kit (Fluorometric) from Abcam. (A) NFA derivatives with different chain length. (B) NFA derivatives with different Michael acceptor position. Samples were normalized to protein concentration. Data are presented as mean + SD of n=4. COX, cyclooxygenase; DMSO, dimethyl sulfoxide NFA, nitro fatty acids .
(1 picture or pasted object on this page, not shown here)

PMNL = assay: WST-1 viability assay in PMNL; assay type: cell-based, human; conditions: 20 µM, 2 h (data not shown)
Method: Cell viability was analyzed with the WST-1 assay based on the cleavage of the stable tetrazolium salt WST-1 by the mitochondrial reductase system. Cells were seeded in the appropriate densities in a clear 96-well plate and settled overnight at 37°C in 5% CO2. […] Cell viability was analyzed by adding 10 µl WST-1 solution (Roche, Basel, Switzerland) and subsequently incubating the cells at 37°C for another 30–40 min. Absorbance was measured at 450 nm with a control wavelength at 620 nm using a plate reader.
5-LO, the key enzyme in leukotriene biosynthesis, catalyzes the first steps in leukotriene formation from AA. Oxidation of AA by 5-LO leads to the formation of 5-hydroperoxyeicosatetraenoic acid (5-HPETE), which can further be converted to LTA4 or reduced to 5-HETE. In the next step, LTA4 is hydrolyzed by LTA4 hydrolase to produce LTB4. Moreover, 12- and 15-LO catalyze the formation of 12- and 15-H(P)ETE [12- and 15-hydro(per)oxyeicosatetraenoic acid]. Nitroalkylation of 5-LO cysteines 416 and 418 by NFA leads to enzyme inhibition and beneficial anti-inflammatory effects, whereas no impact has been observed on 12- and 15-LO so far ([Awwad et al., 2014]). 5-LO product formation of purified PMNL was triggered by incubation with 2.5 µM of the calcium ionophore A23187 in the presence of 20 µM AA. […] Shifting the nitro group from position 9 to 10, or rather, towards position 11 (18.11.11), led to a decreased impact on 15-LO product formation (Table 3). […] Therefore, 5-LO product formation of purified PMNL after treatment with A23187 was determined in absence of AA which should strongly increase the 5-LO-inhibitory potency of competitive inhibitors. However, IC50 values were similar under these conditions strengthening the hypothesis of NFA as presumably non-competitive 5-LO inhibitors. Using a WST-1 viability assay we assessed possible cytotoxic effects of the strongest 5-LO-inhibitory NFA derivatives in PMNL including 18.4.4, 18.5.5, 18.6.6, 18.7.7, 18.8.8, 18.8.9, 18.9.9, 18.9.10, 18.10.10, 20.9.9, and 22.9.9.

NF-κB p50 = NF-κB p50 transcription factor ELISA in TNFα-stimulated HCT-116 cells; assay type: cell-based, human; conditions: 14 h preincubation, then 10 ng/ml TNF-α 4 h, HCT-116, ELISA; for inhibition of NF-κB p50 signaling: 10 µM
Method: The Nrf-2 and NF-κB transcription factors in the nuclear extracts were detected using an Nrf-2 Transcription Assay Kit (Cayman Chemical, # 600590) and NF-κB (p65 and p50) Transcription Factor Assay Kit (Cayman Chemical, # 10007889 and # 10006912). Prior to assay performance, the nuclear extracts were generated using a Nuclear Extraction Kit (Cayman Chemical, # 10009277). The assay was performed according to the manufacturer’s instructions. For all kits, the nuclear extracts were incubated overnight at 4°C. Development was carried out for 15–20 min or until the wells turned medium to dark blue. Five minutes after the stop solution had been added, the absorbance was read at 450 nm using a plate reader.
The proteasome inhibitor MG132 ([Lee and Goldberg, 1998]) was used as a positive control, as proteasomal inhibition leads to stabilization of I-κB and thus inhibits the activation of the NF-κB signaling pathway. We used a MG132 incubation period of 4 h as longer incubations have been described to activate NF-κB signaling ([Lee et al., 2013]).
FIGURE 1 Effects of NFA on the NF-κB p65 and p50 signaling pathway in colorectal cancer cells. […] Incubation for 4 h with the proteasome inhibitor MG132 (1 µM) served as the positive control. […] Values are normalized to protein concentration and unstimulated vehicle control. Data are represented as mean ± SD of (A) n = 3 (DMSO, 16.9.9, 9NOA control of right panel, 18.4.4, 18.6.7, and 18.9.10), n = 4 (all other derivatives) and (B) n = 5. Statistical significance was calculated by one-way analysis of variance (ANOVA) with Bonferroni post-test. *p ≤ 0.03, **p ≤ 0.0021, ***p ≤ 0.0002, ****p ≤ 0.0001 were considered significant versus TNF-α treatment.

Row | Structure (SMILES) | effect on COX-2 activity in IL-1β-stimulated A549 cells (COX-2) | cytotoxic effects in PMNL (WST-1 viability) (PMNL) | inhibition of NF-κB p50 signaling (NF-κB p50) | inhibition at 10 µM (NF-κB p50; Homo sapiens, read-out: inhibition of NF-κB p50 signaling) [%]
1 | CCC=C(CCCCCCCC(=O)O)[N+](=O)[O-] [12.9.9, 9-nitro-dodec-9-enoic acid] | failed increasing COX-2 product formation | – | – | –
2 | CCCCC=C(CCCCCCCC(=O)O)[N+](=O)[O-] [14.9.9, 9-nitro-tetradec-9-enoic acid] | failed increasing COX-2 product formation | – | – | –
3 | CCCCCCC=C(CCCCCCCC(=O)O)[N+](=O)[O-] [16.9.9, 9-nitro-hexadec-9-enoic acid] | failed increasing COX-2 product formation | – | – | –
4 | CCCCCCCCCCCCCC=C(CCC(=O)O)[N+](=O)[O-] [18.4.4, 4-nitro-octadec-4-enoic acid] | – | failed to induce significant cytotoxic effects | – | –
5 | CCCCCCCCCCCCC=C(CCCC(=O)O)[N+](=O)[O-] [18.5.5, 5-nitro-octadec-5-enoic acid] | – | failed to induce significant cytotoxic effects | – | –
6 | CCCCCCCCCCCC=C(CCCCC(=O)O)[N+](=O)[O-] [18.6.6, 6-nitro-octadec-6-enoic acid] | induced COX-2 activity | failed to induce significant cytotoxic effects | – | –
7 | CCCCCCCCCCC=C(CCCCCC(=O)O)[N+](=O)[O-] [18.7.7, 7-nitro-octadec-7-enoic acid] | – | failed to induce significant cytotoxic effects | most effective p50 inhibitors | –
8 | CCCCCCCCCC=C(CCCCCCC(=O)O)[N+](=O)[O-] [18.8.8, 8-nitro-octadec-8-enoic acid] | induced COX-2 activity | failed to induce significant cytotoxic effects | most effective p50 inhibitors | –
9 | CCCCCCCCCC(=CCCCCCCC(=O)O)[N+](=O)[O-] [18.8.9, 9-nitro-octadec-8-enoic acid] | – | failed to induce significant cytotoxic effects | most effective p50 inhibitors | –
10 | CCCCCCCCC=C(CCCCCCCC(=O)O)[N+](=O)[O-] [18.9.9, 9-nitro-octadec-9-enoic acid] | no COX-2 inhibition | failed to induce significant cytotoxic effects | most effective p50 inhibitors | ~60
11 | CCCCCCCCC(=CCCCCCCCC(=O)O)[N+](=O)[O-] [18.9.10, 10-nitro-octadec-9-enoic acid] | – | failed to induce significant cytotoxic effects | – | –
12 | CCCCCCCC=C(CCCCCCCCC(=O)O)[N+](=O)[O-] [18.10.10, 10-nitro-octadec-10-enoic acid] | slight COX-2 inhibition | failed to induce significant cytotoxic effects | – | –
13 | CCCCCCCCCCC=C(CCCCCCCC(=O)O)[N+](=O)[O-] [20.9.9, 9-nitro-eicos-9-enoic acid] | no COX-2 inhibition; also recorded: increased COX-2 product formation | failed to induce significant cytotoxic effects | – | –
